Assays:
MNK2 = MNK2 (Homo sapiens, UniProt Q9HBH9); assay: MNK2 substrate phosphorylation assay; assay type: biochemical; conditions: recombinant human kinase
MNK1 = MNK1 (Homo sapiens, UniProt Q9BUB5); assay: MNK1 substrate phosphorylation assay; assay type: biochemical; conditions: recombinant human kinase
[1] = system: eIF4E phosphorylation at Serine 209 in the human embryonic kidney (HEK) 293 cell line; assay: eIF4E phosphorylation in HEK 293 cells (fluorescent plate reader); assay type: cell-based; conditions: eIF4E phosphorylation at Serine 209, 2 hours exposure
Experimental: The ability of MNK inhibitors described herein to inhibit eIF4E phosphorylation at Serine 209 in the human embryonic kidney (HEK) 293 cell line was tested by exposing the cells to compound for 2 hours and then measuring eIF4E phosphorylation with a phosphorylation-specific antibody in a fluorescent plate reader. These experiments were done with HEK-293 cells plated on 96 well plates. Following treatment, cells were fixed with ice cold methanol for 10 min and then washed in 1× phosphate buffered saline (PBS) and the permeabilized with 0.02% Triton X-100 in 10% normal goat serum made up in PBS. Primary antibody was applied overnight at a concentration dilution of 1:2000 (p-eIF4E antibody from Cell Signaling ab76256). Following washing, cells were then exposed to secondary antibody conjugated to alexa-fluor 488 and then visualized on a Syngergy HTX plate reader. Fluorescence for p-eIF4E was measured and normalized to total DAPI fluorescence to determine the percentage of eIF4E phosphorylation in each well. Data were plotted in Graphpad Prism V8 to determine concentration-response effects and calculate IC50 values.

P-gp (human MDR1, ABCB1) = assay: MDCK-MDR1 permeability (blood brain barrier permeability); assay type: in vitro ADME, Canine; conditions: dog; for efflux ratio at 5 μM: MDCK-MDR1, 5 μM, read-out: Efflux ratio (ratio B-A/A-B); for Papp A→B at 5 μM: MDCK-MDR1, Apical to basolateral transport; for Papp A→B at 5 μM / Papp B→A at 5 μM: average of two experiments; for Papp B→A at 5 μM: MDCK-MDR1, Basolateral to apical transport
[2] = Liver microsome stability, mouse; assay type: in vitro ADME; conditions: for half-life: mouse, liver microsomes
[3] = Liver microsome stability, human; assay type: in vitro ADME; conditions: liver microsomes; for half-life: read-out: Human liver microsomes t1/2
[4] = Liver microsome stability, rat; assay type: in vitro ADME; conditions: Rat liver microsomes (#); for microsomal CLint: read-out: CLint rodent; for half-life: read-out: Rodent liver microsomes t1/2
[5] = mouse liver microsomes, Table 11b, read-out: T1/2

Chain of MNK1 (Q9BUB5 whole entry): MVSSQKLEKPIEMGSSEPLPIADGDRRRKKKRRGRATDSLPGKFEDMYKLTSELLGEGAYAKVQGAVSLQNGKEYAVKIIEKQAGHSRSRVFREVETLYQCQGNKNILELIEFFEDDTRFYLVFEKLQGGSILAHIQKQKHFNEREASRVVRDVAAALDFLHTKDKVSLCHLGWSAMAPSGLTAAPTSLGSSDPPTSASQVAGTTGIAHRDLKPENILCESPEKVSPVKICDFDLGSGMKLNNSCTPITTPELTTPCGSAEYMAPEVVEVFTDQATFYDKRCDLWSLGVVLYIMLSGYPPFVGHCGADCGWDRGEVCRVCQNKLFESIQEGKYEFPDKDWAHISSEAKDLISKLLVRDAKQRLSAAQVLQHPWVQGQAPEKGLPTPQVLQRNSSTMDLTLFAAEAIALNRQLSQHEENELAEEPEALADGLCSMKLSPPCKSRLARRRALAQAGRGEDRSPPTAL
Chain of MNK2 (Q9HBH9 whole entry): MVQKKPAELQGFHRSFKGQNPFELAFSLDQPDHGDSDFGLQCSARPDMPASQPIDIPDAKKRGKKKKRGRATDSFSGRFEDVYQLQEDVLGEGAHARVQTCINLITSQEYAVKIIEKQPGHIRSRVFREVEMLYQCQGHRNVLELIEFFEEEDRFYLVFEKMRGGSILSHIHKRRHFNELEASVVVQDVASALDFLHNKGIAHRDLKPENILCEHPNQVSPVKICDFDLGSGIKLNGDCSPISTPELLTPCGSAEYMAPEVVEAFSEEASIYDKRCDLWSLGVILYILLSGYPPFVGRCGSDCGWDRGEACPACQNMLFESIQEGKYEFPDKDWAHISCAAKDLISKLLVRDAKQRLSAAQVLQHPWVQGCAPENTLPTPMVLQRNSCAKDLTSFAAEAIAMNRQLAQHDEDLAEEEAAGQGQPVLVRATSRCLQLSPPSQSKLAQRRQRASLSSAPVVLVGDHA

| Compound | IC50 (MNK2) | IC50 (MNK1) | IC50 ([1]; Homo sapiens, HEK293, 2 h) | other results |
| --- | --- | --- | --- | --- |
| Cc1cc(Nc2cc(NCCNS(C)(=O)=O)ncn2)c(=O)n2c1C(=O)NC21CCOCC1 [Compound 4ET-03-014] | 32.8 nM | 107 nM | – | – |
| Cc1cc(Nc2cc(NCCN3CCOCC3)ncn2)c(=O)n2c1C(=O)NC21CCCC1 [Compound 4ET-03-006, 8′-Methyl-6′-((6-((2-morpholinoethyl)amino)pyrimidin-4-yl)amino)-2′H-spiro[cyclopentane-1,3′-imidazo[1,5-a]pyridine]-1′,5′-dione] | 5.9 nM | 64.6 nM | 53 nM | – |
| Cc1cc(Nc2cc(N)ncn2)c(=O)n2c1C(=O)NC21Cc2ccccc2[C@@H]1F (single isomer, unassigned) [Compound 4ET-01-010A, 6-((6-Aminopyrimidin-4-yl)amino)-1′-fluoro-8-methyl-1′,3′-dihydro-2H-spiro[imidazo[1,5-a]pyridine-3,2′-indene]-1,5-dione] | 9.24 nM | 73.4 nM | – | efflux ratio at 5 μM (P-gp (human MDR1, ABCB1)): 1.5; Papp A→B at 5 μM (P-gp (human MDR1, ABCB1)): 42.7 ×10⁻⁶ cm/s; Papp B→A at 5 μM (P-gp (human MDR1, ABCB1)): 63.9 ×10⁻⁶ cm/s; half-life [2, 5]: 1.92 h; IC50 [1]: 35.4 nM |
| Cc1cc(Nc2cc(NCCO)ncn2)c(=O)n2c1C(=O)NC21CCOCC1 [Compound 4ET-03-011] | 27.8 nM | 203 nM | 32.4 nM | – |
| CC1=CC2(CCC1)NC(=O)c1c(C)cc(Nc3cc(N)ncn3)c(=O)n12 (stereo not shown) [Compound 4ET-01-058, 6′-((6-Aminopyrimidin-4-yl)amino)-3,8′-dimethyl-2′H-spiro[cyclohexane-1,3′-imidazo[1,5-a]pyridin]-2-ene-1′,5′-dione] | 6.5 nM | 58.4 nM | 10.9 nM | efflux ratio at 5 μM (P-gp (human MDR1, ABCB1)): 1.1; Papp A→B at 5 μM (P-gp (human MDR1, ABCB1)): 57.8 ×10⁻⁶ cm/s; Papp B→A at 5 μM (P-gp (human MDR1, ABCB1)): 61.2 ×10⁻⁶ cm/s; half-life [2, 5]: 7.67 h |
| Cc1cc(Nc2cc(NCCNS(C)(=O)=O)ncn2)c(=O)n2c1C(=O)NC2(C)C [Compound 4ET-03-012] | 273 nM | 441 nM | – | – |
| Cc1cc(Nc2cc(NC(=O)C3CC3)ncn2)c(=O)n2c1C(=O)NC21Cc2ccc(Cl)cc2C1 (stereo not shown) [Compound 4ET-03-054] | 5.7 nM | 118 nM | 8.6 nM | – |
| CCC1=CC2(CCC1)NC(=O)c1c(C)cc(Nc3cc(NC(=O)C4CC4)ncn3)c(=O)n12 (stereo not shown) [Compound 4ET-03-039, N-(6-((3-Ethyl-8′-methyl-1′,5′-dioxo-1′,5′-dihydro-2′H-spiro[cyclohexane-1,3′-imidazo[1,5-a]pyridin]-2-en-6′-yl)amino)pyrimidin-4-yl)cyclopropanecarboxamide] | 1.62 nM | 31.6 nM | 2.6 nM | – |
| Cc1cc(Nc2cc(N)ncn2)c(=O)n2c1C(=O)NC21CCCC1 [Compound 4ET-01-001, 6′-((6-Aminopyrimidin-4-yl)amino)-8′-methyl-2′H-spiro[cyclopentane-1,3′-imidazo[1,5-a]pyridine]-1′,5′-dione] | – | – | – | IC50 ([1]; Homo sapiens, HEK293): 10.9 nM |
| Cc1cc(Nc2cc(NC(=O)C(C)C)ncn2)c(=O)n2c1C(=O)NC21CCOCC1 [Compound 4ET-03-008] | 7.4 nM | 65.5 nM | 52.6 nM | – |
| Cc1cc(Nc2cc(NC(=O)C3CC3)ncn2)c(=O)n2c1C(=O)NC2(C)c1cccc(Cl)c1 (stereo not shown) [Compound 4ET-03-035] | 4.3 nM | 128 nM | 8.7 nM | – |
| Cc1cc(Nc2cc(NCCN3CCOCC3)ncn2)c(=O)n2c1C(=O)NC21CCCCC1 [Compound 4ET-02-005] | 10.4 nM | 45.1 nM | 22.5 nM | efflux ratio at 5 μM (P-gp (human MDR1, ABCB1)): 9.4; Papp A→B at 5 μM (P-gp (human MDR1, ABCB1)): 4.5 ×10⁻⁶ cm/s; Papp B→A at 5 μM (P-gp (human MDR1, ABCB1)): 42.2 ×10⁻⁶ cm/s; microsomal CLint [3]: 5.64 µL/min/mg; half-life [3]: 4.1 h; microsomal CLint [4]: 13.6 µL/min/mg; half-life [4]: 1.7 h |
| Cc1cc(Nc2cc(NCCN3CCOCC3)ncn2)c(=O)n2c1C(=O)NC2(C)C [Compound 4ET-03-003] | 22.6 nM | 80.2 nM | 110 nM | – |
| Cc1cc(Nc2cc(NCCC(=O)O)ncn2)c(=O)n2c1C(=O)NC21CCCCC1 [Compound 4ET-02-006, 3-((6-((8′-Methyl-1′,5′-dioxo-1′,5′-dihydro-2′H-spiro[cyclohexane-1,3′-imidazo[1,5-a]pyridin]-6′-yl)amino)pyrimidin-4-yl)amino)propanoic acid] | 14.4 nM | 346 nM | – | efflux ratio at 5 μM (P-gp (human MDR1, ABCB1)): 0.8; Papp A→B at 5 μM (P-gp (human MDR1, ABCB1)): 0.1 ×10⁻⁶ cm/s; Papp B→A at 5 μM (P-gp (human MDR1, ABCB1)): 0.1 ×10⁻⁶ cm/s |
| Cc1cc(Nc2cc(NC(=O)C3CC3)ncn2)c(=O)n2c1C(=O)NC21CCOc2ccc(Cl)cc21 (stereo not shown) [Compound 4ET-03-036] | 5.65 nM | 118 nM | 8.6 nM | – |
| Cc1cc(Nc2cc(NCCO)ncn2)c(=O)n2c1C(=O)NC21CCCC1 [Compound 4ET-03-007, 6′-((6-((2-Hydroxyethyl)amino)pyrimidin-4-yl)amino)-8′-methyl-2′H-spiro[cyclopentane-1,3′-imidazo[1,5-a]pyridine]-1′,5′-dione] | 4.9 nM | 96.7 nM | 10 nM | efflux ratio at 5 μM (P-gp (human MDR1, ABCB1)): 6.3; Papp A→B at 5 μM (P-gp (human MDR1, ABCB1)): 2.4 ×10⁻⁶ cm/s; Papp B→A at 5 μM (P-gp (human MDR1, ABCB1)): 15.1 ×10⁻⁶ cm/s |
| Cc1cc(Nc2cc(NC(=O)C3CC3)ncn2)c(=O)n2c1C(=O)NC2(C)C [Compound 4ET-03-002, N-(6-((3,3,8-Trimethyl-1,5-dioxo-1,2,3,5-tetrahydroimidazo[1,5-a]pyridin-6-yl)amino)pyrimidin-4-yl)cyclopropanecarboxamide] | – | 133 nM | – | IC50 ([1]; Homo sapiens, HEK293): 5.3 nM |
| Cc1cc(Nc2cc(NCCO)ncn2)c(=O)n2c1C(=O)NC2(C)C [Compound 4ET-03-004] | 7.7 nM | 84.5 nM | 86.6 nM | – |
| Cc1cc(Nc2cc(NC(=O)C3CC3)ncn2)c(=O)n2c1C(=O)NC21Cc2ccccc2[C@@H]1O (stereo in doubt) [Compound 4ET-03-063, N-(6-((1′-Hydroxy-8-methyl-1,5-dioxo-1,1′,3′,5-tetrahydro-2H-spiro[imidazo[1,5-a]pyridine-3,2′-inden]-6-yl)amino)pyrimidin-4-yl)cyclopropanecarboxamide] | 3 nM | 35 nM | 17 nM | efflux ratio at 5 μM (P-gp (human MDR1, ABCB1)): 10.2; Papp A→B at 5 μM (P-gp (human MDR1, ABCB1)): 8.7 ×10⁻⁶ cm/s; Papp B→A at 5 μM (P-gp (human MDR1, ABCB1)): 64.9 ×10⁻⁶ cm/s; half-life [2, 5]: 3.7 h |
| Cc1cc(Nc2cc(NCCN3CCOCC3)ncn2)c(=O)n2c1C(=O)NC21CCOCC1 [Compound 4ET-03-010] | 84.8 nM | 382 nM | 164 nM | – |
| Cc1cc(Nc2cc(NC(=O)C(C)C)ncn2)c(=O)n2c1C(=O)NC2(C)C [Compound 4ET-03-001] | 11.9 nM | 119 nM | 47 nM | – |
| Cc1cc(Nc2cc(N)ncn2)c(=O)n2c1C(=O)NC21Cc2ccccc2[C@@H]1F (single isomer, unassigned) [Compound 4ET-01-010B, 6-((6-Aminopyrimidin-4-yl)amino)-1′-fluoro-8-methyl-1′,3′-dihydro-2H-spiro[imidazo[1,5-a]pyridine-3,2′-indene]-1,5-dione] | 96.6 nM | 348 nM | – | IC50 [1]: 71.3 nM |
| Cc1cc(Nc2cc(N3CCN(CCN(C)C)CC3)ncn2)c(=O)n2c1C(=O)NC21CCCCC1 [Compound 4ET-02-002] | – | – | – | MNK2 IC50 (MNK2): inactive; MNK1 IC50 (MNK1): inactive |
| Cc1cc(Nc2cc(NC(=O)CN3CCOCC3)ncn2)c(=O)n2c1C(=O)NC21CCCCC1 [Compound 4ET-02-007, N-(6-((8′-Methyl-1′,5′-dioxo-1′,5′-dihydro-2′H-spiro[cyclohexane-1,3′-imidazo[1,5-a]pyridin]-6′-yl)amino)pyrimidin-4-yl)-2-morpholinoacetamide] | 3.6 nM | 89 nM | – | efflux ratio at 5 μM (P-gp (human MDR1, ABCB1)): 5.6; Papp A→B at 5 μM (P-gp (human MDR1, ABCB1)): 7.3 ×10⁻⁶ cm/s; Papp B→A at 5 μM (P-gp (human MDR1, ABCB1)): 40.8 ×10⁻⁶ cm/s; microsomal CLint [3]: 6.42 µL/min/mg; half-life [3]: 3.6 h; microsomal CLint ([2]; Mouse liver microsomes (*), read-out: CLint rodent): 8.7 µL/min/mg; half-life ([2]; Mouse liver microsomes (*), Table 11a, read-out: Rodent liver microsomes t1/2): 2.65 h |
| Cc1cc(Nc2cc(NC(=O)C3CC3)ncn2)c(=O)n2c1C(=O)NC21CCCCC1 [Compound 4ET-02-003, N-(6-((8′-Methyl-1′,5′-dioxo-1′,5′-dihydro-2′H-spiro[cyclohexane-1,3′-imidazo[1,5-a]pyridin]-6′-yl)amino)pyrimidin-4-yl)cyclopropanecarboxamide] | 4.1 nM | 140 nM | 1.4 nM | microsomal CLint [3]: 2.31 µL/min/mg; half-life [3]: 9.98 h; microsomal CLint [4]: 3.75 µL/min/mg; half-life [4]: 6.17 h |

— patent publication US20230286983A1 (4E Therapeutics, Inc., priority 2020, published 2023)
